Values quoted from earlier work as cited in patent US11033514B2 (priority 2016, dated 2021).

[1] = Nguyen et al. (2009), oral dose 5 grams

Half life in blood (in vivo, po) | Plasma level (in vivo, po) | Half-Life (Goldberg et al. (2003), oral dose 25 mg) | % of orally administered dose of resveratrol bioavailable [1] | Unconjugated/Free Resveratrol in plasma (Bioavailability) [1] | Structure (SMILES)
0.5 h | 5 to 40 nM | – | – | – | Oc1ccc(/C=C/c2cc(O)cc(O)c2)cc1 [Synthetic resveratrol]
– | – | 2 h | (0.012% of orally | 2400 nmol/L | Oc1ccc(/C=C/c2cc(O)cc(O)c2)cc1 [resveratrol, 3,5,4′-trihydroxy-trans-stilbene]
